Results from patent publication US20030229105A1, “Treatment of autoimmune disorders” (Cyclacel Limited, priority 2002, published 2003).

Legend:
HIV-1 = test: p24 antigen ELISA of supernatants from induced HIV-1 latently infected cells (ACH2, 8E5, U1); type: cell-based; conditions: for inhibition of HIV-1 replication (p24 in medium): ACH2, 8E5, U1 cells induced with TNF-α (10 ng/ml, 2 h), 10 μM drug, 5 days; for p24 antigen release, time course: ACH2 cells, days 2, 4, 6
Protocol: (§1) We chose HIV-1 stably integrated cells, lymphocytic ACH2 and 8E5 cell lines, as well as monocytic U1 cells (and their uninfected parental counterparts CEM and U937, respectively) for our initial studies, since viral transcription could be activated and scored through signals, such as Tat, TNF-α or phorbol myristate acetate (PMA) and PHA. We first activated viruses in these cells with TNF-α (10 ng/ml) at 37° C. for 2 h, followed by washing, and then we incubated cells with 10 μM concentrations of each drug. […] We next examined the effect of all three drugs on primary HIV-1 field isolates of SI and NSI strains. Activated PBMC were infected with two independent HIV-1 viral strains of SI (UG/92/029, subtype A envelope) and NSI (THA/92/001, subtype E envelope).
Five days later, the supernatants were collected, and the amount of newly synthesized HIV-1 was measured by p24 antigen assay. (B) Purified Tat (300 μg) was electroporated into ACH2, 8E5, and U1 cells and subsequently treated with various drugs for 5 days. […] Seven days later samples were collected and used for p19 gag ELISA. (E) PHA-activated PBMC (5×10^6) were infected with HIV-1 either SI (UG/92/029 Uganda strain, subtype A envelope) or NSI (THA/92/001, Thailand strain, subtype E envelope) strains. Unadsorbed viruses were washed after 6 h, and cells were cultured in fresh media with various cdk inhibitors (10 μM). Samples were collected every sixth day and used for p24 gag ELISA assay.
At days 2, 4, and 6, the supernatants were collected, and the released HIV-1 particles were measured by using a p24 antigen ELISA assay. (B) Twenty micrograms of total RNA was separated on an RNA-formaldehyde-agarose gel, transferred, and probed with full-length labeled HIV-1 genome RNA. The hybridized genomic RNA, singly spliced (structural), and doubly spliced (regulatory) RNAs were exposed and counted by using Molecular Dynamic PhosphorImager software.
Supernatants from the infected PBMC were collected and used directly for the p24 antigen assay. The p24 gag antigen level was analyzed by using the HIVAG-1 Monoclonal Antibody Kit (Abbott Laboratories, Diagnostics Division). The HTLV-1 p19 core antigen ELISA kit was from Retro-Tek (Cellular Products).

[1] = test system: HIV-1 NSI (THA/92/001, subtype E envelope); test: p24 gag ELISA of PHA-activated PBMC infected with NSI field isolate; type: cell-based; conditions: 10 μM drug postinfection
Protocol: as §1, with “drug. […]. A somewhat similar pattern of drug inhibition was also seen when ACH2, 8E5, and U1 cells were treated with either Tat or a combination of PMA and PHA to induce full-length viral transcripts. […].” for “drug.”, “envelope). […].” for “envelope).”
Five days later, the supernatants were collected, and the amount of newly synthesized HIV-1 was measured by p24 antigen assay. […]
Media from HIV-1 infected cell lines were centrifuged to pellet the cells, and supernatants were collected and diluted to 1:100 to 1:1,000 in RPMI 1640 prior to ELISA. […] The p24 gag antigen level was analyzed by using the HIVAG-1 Monoclonal Antibody Kit (Abbott Laboratories, Diagnostics Division). […]

[2] = test system: uninfected T and monocytic cells; test: Initial test of cdk inhibitors on uninfected cells (data not shown)
[3] = test system: U937 uninfected monocytic parental cell line; test: Cell cycle analysis (PI staining, FACS) of uninfected U937 cells; conditions: U937 cells (FIG. 2C)

CC(C)[C@H](CO)Nc1nc(Nc2cccc(Cl)c2)c2ncn(C(C)C)c2n1 [Purvalanol A]
inhibition of HIV-1 replication (p24 in medium) (HIV-1): most effective
block of viral replication (p24 gag), NSI strain [1]: effectively blocked viral replication
toxicity in uninfected cells [2]: lack of toxicity

Roscovitine
inhibition of HIV-1 replication (p24 in medium) (HIV-1): most effective
inhibition of HIV-1 replication (p24), Tat-treated cells (HIV-1; ACH2, 8E5, U1 electroporated with purified Tat, drugs for 5 days): best inhibited
p24 antigen release, time course (HIV-1; 1 μM): no obvious decrease of p24 was apparent
p24 antigen release, time course (HIV-1; 10 μM): only low levels of viral p24 antigens were detected
block of viral replication (p24 gag), NSI strain [1]: effectively blocked viral replication
apoptosis in uninfected parental cells [3]: no apparent apoptosis
toxicity in uninfected cells [2]: lack of toxicity
